Measurements published in publication PMC7160233, “Peptides With Triplet-Tryptophan-Pivot Promoted Pathogenic Bacteria Membrane Defects” (Frontiers in Microbiology, 2020).
Where a SMILES comes first, the peptide text is derived from it.

Assays:
humans = conditions: corresponding to the rat value, ref Richard et al., 2009, Fernstrom, 2012; cited from earlier work
Description: (§1) Also, the indole ring of tryptophan prefers to interact with a […], and the indole NH being close to a lipid carbonyl ester leads W-containing peptides to be powerful and safe promising antibiotic candidates with different beneficial effects ([Dixon et al., 2003]; ...

rats = conditions: ref Richard et al., 2009, Fernstrom, 2012; cited from earlier work
Description: as §1

E. coli ATCC 25922 [1] = assay: Drug resistance experiment (sequential passaging); assay type: cell-based, Escherichia coli; conditions: E. coli 25922, passaged at sub-MIC for 30 days
Experimental: Resistance development of E. coli ATCC 25922 against antibiotics was investigated using a sequential passaging method. Briefly, in the first generation, the MIC value was determined as described previously. After a 24 h incubation, bacterial cells growing in a well with a half-MIC level were harvested and diluted to 0.05 at OD600, followed by a 1:10 dilution in fresh MHB. The inoculum was subjected to subsequent passage MIC testing, and the process was repeated for 30 days. The fold change in MIC was plotted against the number of passages.

E. coli ATCC 25922 [2] = assay: Mouse infection model, bacterial load; assay type: in vivo; conditions: ICR mice, i.p. E. coli 1 × 10^8 CFU/ml, 5 mg/kg i.p. 1 h later, 6 h, P < 0.05
Experimental: Female Institute for Cancer Research (ICR) mice (SPF, 20–25 g) were purchased from WeiTonglihua, Co., Ltd. (Beijing, China). Mice were fed and acclimatized as described ([Chou et al., 2019]). E. coli ATCC 25922 was adopted as the pathogenic bacterium for the infection model in this study. In this mouse model, the antimicrobial activity of S7 was determined by colony counting of blood and various organs. Briefly, the mice were divided into four groups (six groups for anti-inflammatory assay) and received intraperitoneal injections of 100 μl E. coli (1 × 10^8 CFU/ml) cells in 0.9% NaCl or only 100 μl 0.9% NaCl as control. 1 h later, 100 μl S7 (5 mg/kg), 100 μl 0.9% NaCl, 100 μl gentamicin (5 mg/kg) or 100 μl 0.9% NaCl, was intraperitoneally injected to the treated or control groups, respectively. And the mice were sacrificed via excessive anesthesia after 6 h post-challenge. The anti-inflammatory effect of S7 was measured by testing the levels of TNF-α, IL-6, and IL-1β in serum using a TNF-α enzyme-linked immunosorbent assay (ELISA) kit, an IL-6 ELISA kit and an IL-1β ELISA kit according to the manufacturer’s instructions (Shanghai Jin Ma Laboratory Equipment, Co., Ltd.).

E. coli 25922 = assay type: cell-based, Escherichia coli; conditions: 25922, 24 h
Experimental: (§2) The antibacterial activity of the peptides was measured using a method adopted from the Clinical Laboratory Standards Institute (CLSI), with modifications. 50 μL bacterial cells solution with 1000-fold of OD600 = 0.4 was mixed with 50 μL of each peptide of various concentration ranged from 2 to 64 μM dissolved in BSA (0.2% with 0.01% acetic acid) and incubated in sterile 96-well plates at 37°C for 24 h. The MICs were calculated as the lowest concentration of peptide with no microbial growth being observed. Broth with microbial cells and uninoculated broth were used as positive control and negative control, respectively. The tests were performed at least three times.

E. coli UB 1005 = assay: MIC measurement (modified CLSI broth microdilution); assay type: cell-based, Escherichia coli; conditions: peptide 2-64 μM in 0.2% BSA with 0.01% acetic acid, 37°C, 24 h, at least three times
Experimental: as §2

P. aeruginosa 27853 = assay type: cell-based, Pseudomonas aeruginosa; conditions: 27853, 24 h
Experimental: as §2

S. epidermidis 12228 = assay type: cell-based, Staphylococcus epidermidis; conditions: 12228, 24 h
Experimental: as §2

S. aureus 29213 = assay type: cell-based, Staphylococcus aureus; conditions: 29213, 24 h
Experimental: as §2

MRSA* 43300 = assay type: cell-based, methicillin-resistant Staphylococcus aureus; conditions: * 43300, 24 h
Experimental: as §2

L. rhamnosus 1.0385 = assay type: cell-based, Lactobacillus rhamnosus; conditions: 24 h
Experimental: as §2

L. rhamnosus 1.0386 = assay type: cell-based, Lactobacillus rhamnosus; conditions: 24 h
Experimental: as §2

L. rhamnosus 1.0911 = assay type: cell-based, Lactobacillus rhamnosus; conditions: 24 h
Experimental: as §2

L. rhamnosus 1.9025 = assay type: cell-based, Lactobacillus rhamnosus; conditions: 24 h
Experimental: as §2

L. rhamnosus 7469 = assay type: cell-based, Lactobacillus rhamnosus; conditions: 24 h
Experimental: as §2

pathogens = assay: Geometric mean of MICs against pathogens; assay type: cell-based; conditions: six pathogenic strains of Table 2
Experimental: as §2

L. plantarum 8014 = assay type: cell-based; conditions: 24 h
Experimental: as §2

Lactobacillus = assay type: cell-based; conditions: probiotic strains of Table 2
Experimental: as §2

SMILES: N[C@@H](Cc1c[nH]c2ccccc12)C(=O)O [Tryptophan (W), Tryptophan]
- median lethal dose (LD50), corresponding dose in humans (humans): ~1400 mg/kg
- median lethal dose (LD50) (rats): 1600 mg/kg

SMILES: CNC(C)C1CCC(N)C(OC2C(N)CC(N)C(OC3OCC(C)(O)C(NC)C3O)C2O)O1 (stereo not drawn) [gentamicin]
- resistance development (change in MIC on serial passaging) (E. coli ATCC 25922 [1]): induced rapid resistance acquisition
- number of colonies in blood, kidney and liver versus E. coli group (E. coli ATCC 25922 [2]): significantly decreased

SMILES: C[C@@H](O)[C@H](NC(=O)[C@H](Cc1c[nH]c2ccccc12)NC(=O)[C@H](Cc1c[nH]c2ccccc12)NC(=O)[C@H](Cc1c[nH]c2ccccc12)NC(=O)[C@@H](NC(=O)[C@H](Cc1c[nH]c2ccccc12)NC(=O)[C@H](CCCNC(=N)N)NC(=O)[C@@H](N)CCCNC(=N)N)[C@@H](C)O)C(=O)N[C@@H](Cc1c[nH]c2ccccc12)C(=O)N[C@@H](CCCNC(=N)N)C(=O)N[C@@H](CCCNC(=N)N)C(N)=O [Peptide S5] (H-RRWTWWWTWRR-NH2)
- MIC E. coli 25922 (E. coli 25922): 2 μ M
- MIC E. coli UB 1005 (E. coli UB 1005): 2 μ M
- MIC P. aeruginosa 27853 (P. aeruginosa 27853): 4 μ M
- MIC S. epidermidis 12228 (S. epidermidis 12228): 2 μ M
- MIC S. aureus 29213 (S. aureus 29213): 1 μ M
- MIC MRSA* 43300 (MRSA* 43300): 4 μ M
- MIC L. rhamnosus 1.0385 (L. rhamnosus 1.0385): >64 μ M
- MIC L. rhamnosus 1.0386 (L. rhamnosus 1.0386): >64 μ M
- MIC L. rhamnosus 1.0911 (L. rhamnosus 1.0911): >64 μ M
- MIC L. rhamnosus 1.9025 (L. rhamnosus 1.9025): >64 μ M
- MIC L. rhamnosus 7469 (L. rhamnosus 7469): >64 μ M
- geometric mean (GM) of MICs against pathogens (pathogens): 2.24 µM
- MIC L. plantarum 8014 (L. plantarum 8014): >64 μ M
- MIC against Lactobacillus (Lactobacillus): more than 64 μM

SMILES: N=C(N)NCCC[C@H](NC(=O)[C@H](CCCNC(=N)N)NC(=O)[C@H](Cc1c[nH]c2ccccc12)NC(=O)[C@H](CO)NC(=O)[C@H](Cc1c[nH]c2ccccc12)NC(=O)[C@H](Cc1c[nH]c2ccccc12)NC(=O)[C@H](Cc1c[nH]c2ccccc12)NC(=O)[C@H](CO)NC(=O)[C@H](Cc1c[nH]c2ccccc12)NC(=O)[C@H](CCCNC(=N)N)NC(=O)[C@@H](N)CCCNC(=N)N)C(N)=O [Peptide S7] (H-RRWSWWWSWRR-NH2)
- MIC E. coli 25922 (E. coli 25922): 4 μ M
- MIC E. coli UB 1005 (E. coli UB 1005): 2 μ M
- MIC P. aeruginosa 27853 (P. aeruginosa 27853): 4 μ M
- MIC S. epidermidis 12228 (S. epidermidis 12228): 4 μ M
- MIC S. aureus 29213 (S. aureus 29213): 4 μ M
- MIC MRSA* 43300 (MRSA* 43300): 2 μ M
- MIC L. rhamnosus 1.0385 (L. rhamnosus 1.0385): >64 μ M
- MIC L. rhamnosus 1.0386 (L. rhamnosus 1.0386): >64 μ M
- MIC L. rhamnosus 1.0911 (L. rhamnosus 1.0911): >64 μ M
- MIC L. rhamnosus 1.9025 (L. rhamnosus 1.9025): >64 μ M
- MIC L. rhamnosus 7469 (L. rhamnosus 7469): >64 μ M
- geometric mean (GM) of MICs against pathogens (pathogens): 3.17 µM
- MIC L. plantarum 8014 (L. plantarum 8014): >64 μ M
- MIC against Lactobacillus (Lactobacillus): more than 64 μM

SMILES: CN(C)[C@@H]1C(O)=C(C(N)=O)C(=O)[C@@]2(O)C(O)=C3C(=O)c4c(O)cccc4[C@@](C)(O)[C@H]3C[C@@H]12 [tetracycline]
- resistance development (change in MIC on serial passaging) (E. coli ATCC 25922 [1]): induced rapid resistance acquisition

SMILES: N=C(N)NCCC[C@H](NC(=O)[C@H](CCCNC(=N)N)NC(=O)[C@H](Cc1c[nH]c2ccccc12)NC(=O)[C@H](CC(N)=O)NC(=O)[C@H](Cc1c[nH]c2ccccc12)NC(=O)[C@H](Cc1c[nH]c2ccccc12)NC(=O)[C@H](Cc1c[nH]c2ccccc12)NC(=O)[C@H](CC(N)=O)NC(=O)[C@H](Cc1c[nH]c2ccccc12)NC(=O)[C@H](CCCNC(=N)N)NC(=O)[C@@H](N)CCCNC(=N)N)C(N)=O [Peptide S3] (H-RRWNWWWNWRR-NH2)
- MIC E. coli 25922 (E. coli 25922): >64 μ M
- MIC E. coli UB 1005 (E. coli UB 1005): >64 μ M
- MIC P. aeruginosa 27853 (P. aeruginosa 27853): >64 μ M
- MIC S. epidermidis 12228 (S. epidermidis 12228): >64 μ M
- MIC S. aureus 29213 (S. aureus 29213): >64 μ M
- MIC MRSA* 43300 (MRSA* 43300): >64 μ M
- MIC L. rhamnosus 1.0385 (L. rhamnosus 1.0385): >64 μ M
- MIC L. rhamnosus 1.0386 (L. rhamnosus 1.0386): >64 μ M
- MIC L. rhamnosus 1.0911 (L. rhamnosus 1.0911): >64 μ M
- MIC L. rhamnosus 1.9025 (L. rhamnosus 1.9025): >64 μ M
- MIC L. rhamnosus 7469 (L. rhamnosus 7469): >64 μ M
- MIC L. plantarum 8014 (L. plantarum 8014): >64 μ M
